Laboratory results from PubChem BioAssay AID1963963 (Molecular Pharmacology Branch, DTP, NCI, 2024).
“And” between values parts separate entries of the source, which are not always exact repeats. Equal values may be shown once.

Tested on: 958667-338-R-J2-PDC tumor spheroids viability
Test: Anticancer human tumor 958667-338-R-J2-PDC patient-derived colon adenocarcinoma cell line growth inhibition [PI3K]
Settings: spheroids with HUVEC and MSC; for viability, T/C: stronger effect = lower value
Method in brief: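 Complex 3D spheroids (cancer cells + endothelial HUVEC + mesenchymal stem cells); drug pairs of targeted agent x inavolisib/alpelisib/duvelisib/copanlisib; half-log series from ~Cmax, max 10 microM if Cmax unknown; endpoint viability.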

[1] = curve of first compound, second compound 0.0316 µM
[2] = curve of first compound, second compound 0.1 µM
[3] = curve of first compound, second compound 0.316 µM
[4] = curve of first compound, second compound 1 µM
[5] = second compound 0.0316 µM, first compound 0.0316 µM
[6] = second compound 0.0316 µM, first compound 0.1 µM
[7] = second compound 0.0316 µM, first compound 0.316 µM
[8] = second compound 0.0316 µM, first compound 1 µM
[9] = second compound 0.0316 µM, first compound 3.16 µM
[10] = second compound 0.0316 µM, first compound 10 µM
[11] = second compound 0.1 µM, first compound 0.0316 µM
[12] = second compound 0.1 µM, first compound 0.1 µM
[13] = second compound 0.1 µM, first compound 0.316 µM
[14] = second compound 0.1 µM, first compound 1 µM
[15] = second compound 0.1 µM, first compound 3.16 µM
[16] = second compound 0.1 µM, first compound 10 µM
[17] = second compound 0.316 µM, first compound 0.0316 µM
[18] = second compound 0.316 µM, first compound 0.1 µM
[19] = second compound 0.316 µM, first compound 0.316 µM
[20] = second compound 0.316 µM, first compound 1 µM
[21] = second compound 0.316 µM, first compound 3.16 µM
[22] = second compound 0.316 µM, first compound 10 µM
[23] = second compound 1 µM, first compound 0.0316 µM
[24] = second compound 1 µM, first compound 0.1 µM
[25] = second compound 1 µM, first compound 0.316 µM
[26] = second compound 1 µM, first compound 1 µM
[27] = second compound 1 µM, first compound 3.16 µM
[28] = second compound 1 µM, first compound 10 µM
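Further: spheroids exposed to compounds for seven days before readout.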

CC(Cn1ccc(-c2ccc(C#N)c(Cl)c2)n1)NC(=O)c1cc(C(C)O)[nH]n1 (configuration not stated) + CC(Nc1ncnc2nc[nH]c12)c1cc2cccc(Cl)c2c(=O)n1-c1ccccc1
IC50 [1]: > 10 µM
IC50 [2]: > 10 µM
IC50 [3]: > 10 µM
IC50 [4]: > 10 µM
IC50 (curve of first compound, second compound 3.16 µM): > 10 µM
IC50 (curve of first compound, second compound 10 µM): > 10 µM
viability, T/C [5]: 85.4%
viability, T/C [6]: 105%
viability, T/C [7]: 85.5%
viability, T/C [8]: 106%
viability, T/C [9]: 114%
viability, T/C [10]: 86.5%
viability, T/C [11]: 100%
viability, T/C [12]: 97.5%
viability, T/C [13]: 99.9%
viability, T/C [14]: 99.2%
viability, T/C [15]: 99.4%
viability, T/C [16]: 79.1%
viability, T/C [17]: 90.7%
viability, T/C [18]: 109%
viability, T/C [19]: 121%
viability, T/C [20]: 108%
viability, T/C [21]: 85.8%
viability, T/C [22]: 109%
viability, T/C [23]: 119%
viability, T/C [24]: 115%
viability, T/C [25]: 99.8%
viability, T/C [26]: 112%
viability, T/C [27]: 101%
viability, T/C [28]: 73.7%
viability, T/C (second compound 3.16 µM, first compound 0.0316 µM): 107%
viability, T/C (second compound 3.16 µM, first compound 0.1 µM): 105%
viability, T/C (second compound 3.16 µM, first compound 0.316 µM): 121%
viability, T/C (second compound 3.16 µM, first compound 1 µM): 82.8%
viability, T/C (second compound 3.16 µM, first compound 3.16 µM): 101%
viability, T/C (second compound 3.16 µM, first compound 10 µM): 98.5%
viability, T/C (second compound 10 µM, first compound 0.0316 µM): 77.2%
viability, T/C (second compound 10 µM, first compound 0.1 µM): 98.7%
viability, T/C (second compound 10 µM, first compound 0.316 µM): 86.7%
viability, T/C (second compound 10 µM, first compound 1 µM): 84.1%
viability, T/C (second compound 10 µM, first compound 3.16 µM): 91.9%
viability, T/C (second compound 10 µM, first compound 10 µM): 97.7%

CC(C)NCC(C(=O)N1CCN(c2ncnc3c2C(C)CC3O)CC1)c1ccc(Cl)cc1 (configuration not stated)
viability, T/C (compound 0.0316 µM): 99.2% and 102% and 101%
viability, T/C (compound 0.1 µM): 92.6% and 114% and 87.9%
viability, T/C (compound 0.316 µM): 101% and 113% and 108%
viability, T/C (compound 1 µM): 78.6% and 73.4% and 101%
viability, T/C (compound 3.16 µM): 78.8% and 72.3% and 119%
viability, T/C (compound 10 µM): 72.2% and 69.7% and 80.9%
IC50 (curve of compound): > 10 µM

Cn1ncc(Cl)c1-c1cc(C(=O)NC(CN)Cc2cccc(F)c2)sc1Cl (configuration not stated)
viability, T/C (compound 0.0316 µM): 94.3% [middle of 4 runs]
viability, T/C (compound 0.1 µM): 92.4% [middle of 4 runs]
viability, T/C (compound 0.316 µM): 91.9% [middle of 4 runs]
viability, T/C (compound 1 µM): 74.7% [middle of 4 runs]
viability, T/C (compound 3.16 µM): 53.8% [middle of 4 runs]
viability, T/C (compound 10 µM): 39.3% [middle of 4 runs]

CNC(=O)c1ccc(N2C(=S)N(c3ccc(C#N)c(C(F)(F)F)c3)C(=O)C2(C)C)cc1F + CC(Nc1ccc2c(c1)OCCn1cc(N3C(=O)OCC3C(F)F)nc1-2)C(N)=O
IC50 (curve of first compound, second compound 0.00316 µM): > 10 µM
IC50 (curve of first compound, second compound 0.01 µM): > 10 µM
IC50 [1]: > 10 µM
IC50 [2]: > 10 µM
IC50 [3]: > 10 µM
IC50 [4]: > 10 µM
viability, T/C (second compound 0.00316 µM, first compound 0.0316 µM): 96.3%
viability, T/C (second compound 0.00316 µM, first compound 0.1 µM): 103%
viability, T/C (second compound 0.00316 µM, first compound 0.316 µM): 93.4%
viability, T/C (second compound 0.00316 µM, first compound 1 µM): 84.3%
viability, T/C (second compound 0.00316 µM, first compound 3.16 µM): 97.1%
viability, T/C (second compound 0.00316 µM, first compound 10 µM): 102%
viability, T/C (second compound 0.01 µM, first compound 0.0316 µM): 115%
viability, T/C (second compound 0.01 µM, first compound 0.1 µM): 102%
viability, T/C (second compound 0.01 µM, first compound 0.316 µM): 80.6%
viability, T/C (second compound 0.01 µM, first compound 1 µM): 97.6%
viability, T/C (second compound 0.01 µM, first compound 3.16 µM): 89.9%
viability, T/C (second compound 0.01 µM, first compound 10 µM): 95.7%
viability, T/C [5]: 104%
viability, T/C [6]: 98.1%
viability, T/C [7]: 93.6%
viability, T/C [8]: 107%
viability, T/C [9]: 104%
viability, T/C [10]: 94.6%
viability, T/C [11]: 84.5%
viability, T/C [12]: 57.5%
viability, T/C [13]: 90%
viability, T/C [14]: 79.6%
viability, T/C [15]: 85.1%
viability, T/C [16]: 83.5%
viability, T/C [17]: 75.3%
viability, T/C [18]: 73.5%
viability, T/C [19]: 73.9%
viability, T/C [20]: 72.5%
viability, T/C [21]: 63%
viability, T/C [22]: 68.4%
viability, T/C [23]: 67%
viability, T/C [24]: 64.3%
viability, T/C [25]: 64.2%
viability, T/C [26]: 62%
viability, T/C [27]: 69.4%
viability, T/C [28]: 50.6%
